Patent publication US10844062B2, “Pyridine derivative inhibiting RAF kinase and vascular endothelial growth factor receptor, method for preparing same, pharmaceutical composition containing same, and use thereof” (SAMJIN PHARMACEUTICAL CO., LTD., priority 2016, dated 2020)

Tested on: LS513 KRAS G12V (colon)
Assay: MTT assay
Type: cell-based
Details: Homo sapiens, LS-513, 72 h, Table 4; 3 days incubation; read-out: MTT assay IC50 KRAS mutant (Colon) LS513 KRAS G12V
Description: MTT assay is frequently used for the purpose of primary screening for the sensitivity of anticancer agents and to examine cytotoxicity. When cancer cells are treated with varying concentrations of any anticancer agent for a predetermined time to induce death of the cells and are then treated with MTT, and when the formation of formazan is measured, the concentration of the anticancer agent, at which about 50% of the cells survive, can be determined. This concentration value is called IC50. IC50 values differ between drugs, and thus can be characteristic of the drugs. Using this method, the effects of anticancer agents against cell proliferation can be quantitatively compared. Thus, in order to measure the cytotoxicity of samples, MTT assay was performed using CellTiter 96 Non-radioactive Cell Proliferation Assay Kit (Promega).
Cells in a cell suspension were counted with a hematocytometer, and then 200 μL of the cell suspension was added to each well of a 96 well plate at a desired concentration (cell amount determined depending on a cell line). After cell seeding, the cells were incubated in a CO2 incubator at 37° C. overnight. After one day of cell stabilization, the cells were treated with desired concentrations of the compounds. The cells were incubated in a CO2 incubator at 37° C. for 3 days, and then the sample was removed, and 200 μL of MTT solution was added to each well. After 2 hours of incubation, the MTT dilution was carefully shaken, and 200 μL of DMSO was added to each well, followed by shaking with a plate shaker for 60 minutes.

`CN1CCN(c2cc(C(=O)Nc3ccc(F)c(Nc4ncccc4-c4ncnc5[nH]cnc45)c3F)cc(C(F)(F)F)c2)CC1` [Example 10, N-(3-(3-(9H-purin-6-yl)pyridin-2-ylamino)-2,4-difluorophenyl)-3-(4-methylpiperazin-1-yl)-5-(trifluoromethyl)benzamide] and `CC1CCN(c2cc(C(=O)Nc3ccc(F)c(Nc4ncccc4-c4ncnc5[nH]cnc45)c3F)cc(C(F)(F)F)c2)CC1` [Example 13, N-(3-(3-(9H-purin-6-yl)pyridin-2-ylamino)-2,4-difluorophenyl)-3-(4-methylpiperidin-1-yl)-5-(trifluoromethyl)benzamide] are within 1.5-fold of each other in IC50: 1170 nM for the first, 1150 nM for the second.

Going from `Cc1ccc(NC(=O)c2cccc(C(C)(C)C#N)c2)cc1Nc1ncccc1-c1ncnc2[nH]cnc12` [Example 153, N-3-[(3-(9H-purin-6-yl)pyridin-2-yl)amino]-4-methylphenyl-3-(2-cyanopropan-2-yl)benzamide] to `CC(C)(C#N)c1cccc(C(=O)Nc2ccc(Nc3ncccc3-c3ncnc4[nH]cnc34)c(F)c2)c1` [Example 39, N-(4-(3-(9H-Purin-6-Yl)Pyridin-2-Ylamino)-3-Fluorophenyl)-3-(2-Cyanopropan-2-Yl)Benzamide], the IC50 rises from 447 nM to greater than 10000 nM.

Going from `O=C(Nc1cc(Nc2ncccc2-c2ncnc3[nH]cnc23)ccc1F)c1ccc(F)c(C(F)(F)F)c1` [Example 111, N-5-[(3-(9H-Purin-6-Yl)Pyridin-2-Yl)Amino]-2-Fluorophenyl-4-Fluoro-3-(Trifluoromethyl)Benzamide] to `O=C(Nc1cc(Nc2ncccc2-c2ncnc3[nH]cnc23)ccc1F)c1ccc(C(F)(F)F)c(F)c1` [Example 133, N-5-[(3-(9H-purin-6-yl)pyridin-2-yl)amino]-2-fluorophenyl-3-fluoro-4-(trifluoromethyl)benzamide], the IC50 rises from 300 nM to 5600 nM (19-fold).

Compared with `O=C(Nc1cc(Nc2ncccc2-c2ncnc3[nH]cnc23)ccc1F)c1ccc(C(F)(F)F)c(C(F)(F)F)c1` [Example 129, N-5-[(3-(9H-purin-6-yl)pyridin-2-yl)amino]-2-fluorophenyl-3,4-bis(trifluoromethyl)benzamide], `O=C(Nc1cc(Nc2ncccc2-c2ncnc3[nH]cnc23)ccc1F)c1ccc(C(F)(F)F)cc1C(F)(F)F` [Example 128, N-5-[(3-(9H-purin-6-yl)pyridin-2-yl)amino]-2-fluorophenyl-2,4-bis(trifluoromethyl)benzamide] is 1.8-fold higher in IC50: 652 nM for the first, 1200 nM for the second. The first is the more potent here.

Compared with `O=C(Nc1cc(Nc2ncccc2-c2ncnc3[nH]cnc23)ccc1F)c1cccc(OC(F)(F)F)c1` [Example 131, N-5-[(3-(9H-purin-6-yl)pyridin-2-yl)amino]-2-fluorophenyl-3-(trifluoromethoxy)benzamide], `O=C(Nc1cc(Nc2ncccc2-c2ncnc3[nH]cnc23)ccc1F)c1cccc(Cl)c1` [Example 146, N-5-[(3-(9H-purin-6-yl)pyridin-2-yl)amino]-2-fluorophenyl-3-chlorobenzamide] is 17-fold higher in IC50: 102 nM for the first, 1700 nM for the second. The first is the more potent here.

First: O=C(Nc1cccc(C(F)(F)F)c1)Nc1ccc(Nc2ncccc2-c2ncnc3[nH]cnc23)c(F)c1 [Example 75, 1-3-Fluoro-4-[3-(9H-Purin-6-Yl)Pyridin-2-Ylamino]Phenyl-3-(3-Trifluoromethylphenyl)Urea]
Second: O=C(Nc1cccc(C(F)(F)F)c1)c1cc(Nc2ncccc2-c2ncnc3[nH]cnc23)ccc1F [Example 73, 2-Fluoro-5-[3-(9H-Purin-6-Yl)Pyridin-2-Ylamino]-N-(3-Trifluoromethylphenyl)Benzamide]
The IC50 of the first is higher: greater than 10000 nM for the first, 80 nM for the second. The second is the more potent here.

Compared with `CC(C)(C#N)c1cccc(C(=O)Nc2c(F)ccc(Nc3ncccc3-c3ncnc4[nH]cnc34)c2F)c1` [Example 25, N-(3-(3-(9H-purin-6-yl)pyridin-2-ylamino)-2,6-difluorophenyl)-3-(2-cyanopropan-2-yl)benzamide], `CC(C)(C#N)c1cc(C(=O)Nc2cc(Nc3ncccc3-c3ncnc4[nH]cnc34)ccc2F)ccc1F` [Example 116, N-5-[(3-(9H-purin-6-yl)pyridin-2-yl)amino]-2-fluoropheny-3-(2-cyanopropan-2-yl)-4-fluorobenzamide] is lower in IC50: greater than 10000 nM for the first, 587 nM for the second.

First: O=C(Nc1cc(Nc2ncccc2-c2ncnc3[nH]cnc23)ccc1F)c1cncc(C(F)(F)F)c1 [Example 149, N-5-[(3-(9H-purin-6-yl)pyridin-2-yl)amino]-2-fluorophenyl-5-(trifluoromethyl)nicotinamide]
Second: O=C(Nc1cc(Nc2ncccc2-c2ncnc3[nH]cnc23)ccc1F)c1cc(C(F)(F)F)ccn1 [Example 144, N-5-[(3-(9H-purin-6-yl)pyridin-2-yl)amino]-2-fluorophenyl-4-(trifluoromethyl) picolinamide]
The IC50 of the first is 2-fold higher: 890 nM for the first, 444 nM for the second. The second is the more potent here.

Compared with `O=C(Nc1cc(Nc2ncccc2-c2ncnc3[nH]cnc23)ccc1F)c1cccc(C2CC2)c1` [Example 141, N-5-[(3-(9H-purin-6-yl)pyridin-2-yl)amino]-2-fluorophenyl-3-cyclopropylbenzamide], `Cc1cc(C(=O)Nc2cc(Nc3ncccc3-c3ncnc4[nH]cnc34)ccc2F)ccc1F` [Example 137, N-5-[(3-(9H-purin-6-yl)pyridin-2-yl)amino]-2-fluorophenyl-4-fluoro-3-methylbenzamide] is 2.4-fold higher in IC50: 445 nM for the first, 1060 nM for the second.

Compared with `COc1cc(C(=O)Nc2cc(Nc3ncccc3-c3ncnc4[nH]cnc34)ccc2F)c(Br)c(C(C)(C)C#N)c1` [Example 156, N-5-[(3-(9H-purin-6-yl)pyridin-2-yl)amino]-2-fluorophenyl-2-bromo-3-(2-cyanopropan-2-yl)-5-methoxybenzamide], `CC(C)(C#N)c1cccc(C(=O)Nc2cc(Nc3ncccc3-c3ncnc4[nH]cnc34)ccc2F)n1` [Example 119, N-5-[(3-(9H-purin-6-yl)pyridin-2-yl)amino]-2-fluorophenyl-6-(2-cyanopropan-2-yl)picolinamide] is higher in IC50: 517 nM for the first, greater than 10000 nM for the second. The first is the more potent here.

Going from `O=C(Nc1ccc(F)c(Nc2ncccc2-c2ncnc3[nH]cnc23)c1F)c1ccc(N2CCSCC2)c(C(F)(F)F)c1` [Example 14, N-(3-(3-(9H-purin-6-yl)pyridin-2-ylamino)-2,4-difluorophenyl)-4-thiomorpholino-3-(trifluoromethyl)benzamide] to `COc1ccc(C(=O)Nc2ccc(F)c(Nc3ncccc3-c3ncnc4[nH]cnc34)c2F)cc1C(F)(F)F` [Example 38, N-(3-(3-(9H-Purin-6-Yl)Pyridin-2-Ylamino)-2,4-Difluorophenyl)-4-Methoxy-3-(Trifluoromethyl)Benzamide], the IC50 rises from 851 nM to 1860 nM (2.2-fold). The first is the more potent here.

First: CC(C)C(=O)Nc1ccc(F)c(Nc2ncccc2-c2ncnc3[nH]cnc23)c1F [Example 4, N-(3-(3-(9H-purin-6-yl)pyridin-2-ylamino)-2,4-difluorophenyl)isobutylamide]
Second: CC(C)(C#N)c1cc(C(=O)Nc2ccc(F)c(Nc3ncccc3-c3ncnc4[nH]cnc34)c2F)cc(F)c1F [Example 44, N-(3-(3-(9H-Purin-6-Yl)Pyridin-2-Ylamino)-2,4-Difluorophenyl)-3-(2-Cyanopropan-2-Yl)-4,5-Difluorobenzamide]
The IC50 of the first is higher: greater than 10000 nM for the first, 1320 nM for the second.

First: O=C(Nc1ccc(F)c(Nc2ncccc2-c2ncnc3[nH]cnc23)c1F)c1ccc2c(c1)OCCO2 [Example 17, N-(3-(3-(9H-purin-6-yl)pyridin-2-ylamino)-2,4-difluorophenyl)-2,3-dihydrobenzo[b][1,4]dioxine-6-carboxamide]
Second: O=C(Nc1ccc(F)c(Nc2ncccc2-c2ncnc3[nH]cnc23)c1F)c1cc([N+](=O)[O-])cc(C(F)(F)F)c1 [Example 40, N-(3-(3-(9H-Purin-6-Yl)Pyridin-2-Ylamino)-2,4-Difluorophenyl)-3-Nitro-5-(Trifluoromethyl)Benzamide]
The IC50 of the first is 7.1-fold higher: 1160 nM for the first, 163 nM for the second. The second is the more potent here.

Compared with `N#CCc1cccc(NC(=O)c2ccc(F)c(Nc3ncccc3-c3ncnc4[nH]cnc34)c2)c1` [Example 77, N-(3-Cyanomethylphenyl)-4-Fluoro-3-[3-(9H-Purin-6-Yl)Pyridin-2-Ylamino]Benzamide], `O=C(Nc1cccc(Nc2ncccc2-c2ncnc3[nH]cnc23)c1F)c1cccc(C(F)(F)F)c1` [Example 122, N-3-[(3-(9H-purin-6-yl)pyridin-2-yl)amino]-2-fluorophenyl-3-(trifluoromethyl)benzamide] is 22-fold lower in IC50: 145000 nM for the first, 6580 nM for the second.

`CC(C)(C#N)c1cccc(C(=O)Nc2cc(Nc3ncccc3-c3ncnc4[nH]ccc34)ccc2F)c1` [Example 91, 3-(2-Cyanopropan-2-Yl)-N-2-Fluoro-5-[3-(7H-Pyrrolo[2,3-d]Pyrimidin-4-Yl)Pyridin-2-Ylamino]Phenyl Benzamide] and `CC(C)(C#N)c1cc(F)cc(C(=O)Nc2cc(Nc3ncccc3-c3ncnc4[nH]ccc34)ccc2F)c1` [Example 92, 3-(2-Cyanopropan-2-Yl)-5-Fluoro-N-2-Fluoro-5-[3-(7H-Pyrrolo[2,3-d]Pyrimidin-4-Yl)Pyridin-2-Ylamino]Phenyl Benzamide] are within 1.5-fold of each other in IC50: 1120 nM for the first, 1510 nM for the second.

Compared with `O=C(Nc1cc(Nc2ncccc2-c2ncnc3[nH]cnc23)ccc1F)c1cc([N+](=O)[O-])cc(C(F)(F)F)c1` [Example 62, N-2-Fluoro-5-[3-(9H-Purin-6-Yl)Pyridin-2-Ylamino)Phenyl-3-Nitro-5-(Trifluoromethyl)Benzamide], `O=C(Nc1cc(Nc2ncccc2-c2ncnc3[nH]cnc23)ccc1F)c1cccc(C(F)(F)F)n1` [Example 136, N-5-[(3-(9H-purin-6-yl)pyridin-2-yl)amino]-2-fluorophenyl-6-(trifluoromethyl) picolinamide] is 3.3-fold higher in IC50: 702 nM for the first, 2300 nM for the second. The first is the more potent here.
